The values below are quoted from earlier work in patent publication US20160374912A1, “TOPICALLY APPLICABLE CHEMICAL PEEL COMPOSITION” (L'OREAL, priority 2015, published 2016).

Experiment in series [1]: not given
The source holds these as a separate data set.

On to `Oc1cccc(O)c1` [Resorcinol], for which the pKA is recorded as 9.32-9.81. Moreover, the “Log P” value in series [1] is listed as 2.47.
Take `CC(c1ccccc1)c1ccc(O)cc1O` (stereo not shown) [Phenylethyl Resorcinol]: the pKA is 9.77-10.77. In series [1], the “Log P” value is given as 2.11.

What is called Log P is the decadic logarithm of the partition coefficient of the neutral form, usually between octanol and water.
